Assay results taken from article PMC5062570 (Nature Communications, 2016).
Values joined by “and” are separate entries in the source; they are usually repeats but may differ in a detail not shown here. Equal values may be shown once. Read-outs that look alike come from different tables or passages of the source.

What was measured:
CatD [1] = target: T1, CatD (Homo sapiens, UniProt P07339); experiment: CatD purified enzyme fluorescence polarization assay; assay type: biochemical; parameters: final maturation into a non-covalently associated heavy chain and light chain; purchased Sigma C8696; host or cells: human liver; details: purified human enzyme, fluorescence polarization, substrate-based
Target sequence in this assay (P07339 65-162 limits assumed): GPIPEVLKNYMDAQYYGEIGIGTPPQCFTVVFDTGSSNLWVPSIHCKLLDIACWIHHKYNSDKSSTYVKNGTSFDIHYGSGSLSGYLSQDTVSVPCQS
Target sequence in this assay (P07339 169-412 limits assumed): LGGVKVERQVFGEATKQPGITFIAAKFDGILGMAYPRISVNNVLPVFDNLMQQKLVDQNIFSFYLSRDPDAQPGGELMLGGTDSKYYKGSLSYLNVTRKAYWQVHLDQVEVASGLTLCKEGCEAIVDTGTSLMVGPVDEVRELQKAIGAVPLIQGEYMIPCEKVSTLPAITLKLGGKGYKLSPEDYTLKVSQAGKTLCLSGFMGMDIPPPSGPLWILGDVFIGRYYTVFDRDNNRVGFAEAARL

BACE2 = target: T2, BACE2 (Homo sapiens, UniProt Q9Y5Z0); experiment: BACE2 purified enzyme fluorescence polarization assay; assay type: biochemical; details: purified human enzyme, fluorescence polarization
T2 construct: purchased R&D Systems 4097-AS
T2 sequence (Q9Y5Z0 63-518): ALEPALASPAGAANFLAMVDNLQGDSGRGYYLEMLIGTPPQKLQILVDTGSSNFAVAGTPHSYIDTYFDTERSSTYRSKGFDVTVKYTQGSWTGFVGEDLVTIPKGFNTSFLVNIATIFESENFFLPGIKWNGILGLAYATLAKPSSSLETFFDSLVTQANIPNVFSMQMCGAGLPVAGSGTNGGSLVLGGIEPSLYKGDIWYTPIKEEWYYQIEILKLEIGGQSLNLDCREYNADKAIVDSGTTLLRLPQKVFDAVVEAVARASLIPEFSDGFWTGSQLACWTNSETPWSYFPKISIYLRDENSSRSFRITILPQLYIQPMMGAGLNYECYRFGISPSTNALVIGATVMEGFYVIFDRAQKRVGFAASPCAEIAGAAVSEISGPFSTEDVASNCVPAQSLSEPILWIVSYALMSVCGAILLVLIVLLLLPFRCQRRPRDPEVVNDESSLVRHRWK
Method in brief: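 Purified enzymes incubated with compound (1% DMSO, 37 °C) and 150 nM biotinylated peptide substrate in 100 mM NaOAc pH 4.5. Reaction stopped with 1.5 μM streptavidin; inhibition read by fluorescence polarization. BACE2 0.5 nM, BACE1 substrate, 1 h; CatE 1.0 nM, CatD substrate, 1.5 h.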

[2] = Plasma exposure (average unbound plasma concentration) in rats; assay type: in vivo, rat; details: for Exposure: rat exploratory toxicology studies; for Avg Cp,u metabolite: active metabolite of the dosed compound
Method: Wistar Han rats (obtained from Charles River, 125–300 g, 6–9 weeks old at study start, see Supplementary Table 7 for number of males and females) received daily oral dosing of test compounds or vehicle at the indicated concentrations for 7–29 days as indicated. The doses were prepared in a solution of 0.5% methylcellulose and 0.2% polysorbate 80, or 0.5% methylcellulose and hydroxypropyl methylcellulose acetate succinate (high fine grade) and delivered in a volume of 10 ml kg^−1 per day. Blood samples for bioanalytical analysis were collected in K2EDTA tubes via jugular vessel. Plasma was isolated after centrifugation and stored at −20 °C prior to analysis. Animals were given an additional dose the day after the end of the study (days 8, 15 or 30 for 7, 14 and 29 day studies, respectively) then killed by gas anaesthesia (isoflurane) followed by exsanguination ∼3 h after this final dose.
Plasma samples were analysed after protein precipitation by treating 20 μl of sample matrix with 200 μl of acetonitrile containing internal standard. All samples were centrifuged at 3,000 r.p.m. for 5 min. Then 100 μl of supernatant was transferred to a clean plate and evaporated to dryness under N2. Samples were reconstituted in 200 μl of 80:20 (v:v) acetonitrile:water. Samples were analysed on Waters Acquity UPLC connected to AB Sciex API5500 QTrap MS/MS.
Plasma protein binding was determined in the Rapid Equilibrium Device (RED, Thermo Scientific). Frozen plasma was warmed to 37 °C and adjusted to pH 7.4. The plasma was spiked with compound to a final concentration of 2 μM. Aliquots of spiked plasma were added to the donor (red) side, followed by addition of buffer to the receiver (white) side. The RED device was covered with a gas-permeable membrane and agitated within a humidified CO2 incubator (5% CO2, 75% relative humidity). Plasma (15 μl) and buffer (45 μl) were sampled from each insert and were matrix-matched with appropriate blank matrix (plasma with 45 μl buffer and buffer with 15 μl of plasma). Samples were protein-precipitated with acetonitrile containing internal standard, and the resulting supernatant was analysed by LC-MS/MS.

CatD [3] = target: T1, CatD; experiment: CatD cellular assay (competition of PF-7802 photolabelling in live ARPE-19 cells); assay type: cell-based; parameters: host or cells: ARPE-19; details: for CatD potency increase in live cells: CatD enzyme IC50 versus CatD cellular IC50; for IC50: live ARPE-19 cells, PF-7802 photoprobe 100 nM, 30 min
Method: ARPE-19 cells were plated at a density of 1.2 × 10^6 cells per well in six-well dishes 12–24 h before probe labelling. Culture media was removed completely and replaced with 1 ml of the appropriate serum-free media (no supplements) per well. Cells were then pretreated with test compounds at the indicated concentrations for 30 min (0.5% DMSO, 37 °C, 5% CO2). […] Ultraviolet irradiation was performed without culture plate lids for efficient irradiation, and samples were slowly rotated to prevent evaporation. After ultraviolet irradiation, cells were washed twice with Dulbecco's phosphate-buffered saline (DPBS), scraped into DPBS, centrifuged and stored as pellets at −80 °C.
Cells were lysed with sonication on ice in 70 μl DPBS and protein concentrations were determined using a BCA assay (Pierce). Total protein concentrations were then normalized to 1 mg ml^−1 in 50 μl total volume before addition of 5.5 μl click chemistry mix (1 : 3 : 1 : 0.5 volume of 50 mM CuSO4 (Sigma) in H2O : 1.7 mM TBTA (Sigma) in 4:1 t-BuOH:DMSO : 50 mM TCEP (Hampton Research) in dPBS : 10 mM TAMRA-azide (Lumiprobe) in DMSO - mixed immediately before use. Reagent solutions can be premade and stored at 4 °C except for TCEP, which should be made immediately before use). […] All fluorescence gels are presented in greyscale.
Target sequence in this assay (P07339 169-412 limits assumed): as the sequence (P07339 169-412 limits assumed) above
Target sequence in this assay (P07339 65-162 limits assumed): as the sequence (P07339 65-162 limits assumed) above

[4] = pKa determination by multiplexed capillary electrophoresis; assay type: physicochemical; details: aqueous buffers
Method: All pKa values were determined at Analiza, Inc. by multiplexed capillary electrophoresis (mCE) using 96-capillary array electrophoresis instrument to measure the effective mobility (migration time of the compound in relation to neutral marker, DMSO) with ultraviolet detection. The pKa values were obtained from the ionization curves by plotting the compound effective mobility (24 points across pH range 1.7–11.2) versus pH. All pKa results were determined using aqueous buffers with method average absolute error 0.12.

Row | SMILES | IC50 (CatD [1]) [nM] | IC50 (BACE2) [nM] | Exposure [2] | Avg Cp,u metabolite ([2]; rat, 14 days, 15 mg kg-1 once daily) [nM] | concentration at 29 days ([2]; rat, 14 days, 15 mg kg-1 once daily, average unbound plasma concentration, read-out: Avg Cp,u parent) [nM] | Avg Cp,u metabolite ([2]; rat, 14 days, 40 mg kg-1 once daily) [nM] | concentration at 29 days ([2]; rat, 14 days, 40 mg kg-1 once daily, average unbound plasma concentration, read-out: Avg Cp,u parent) [nM] | Avg Cp,u metabolite ([2]; rat, 14 days, 90 mg kg-1 once daily) [nM] | concentration at 29 days ([2]; rat, 14 days, 90 mg kg-1 once daily, average unbound plasma concentration, read-out: Avg Cp,u parent) [nM] | Avg Cp,u metabolite ([2]; rat, 14 days, 200 mg kg-1 once daily) [nM] | concentration at 29 days ([2]; rat, 14 days, 200 mg kg-1 once daily, average unbound plasma concentration, read-out: Avg Cp,u parent) [nM] | CatD potency increase in live cells (CatD [3]) [x] | IC50 (CatD [3]) | pKa [4] | concentration at 14 days ([2]; Wistar Han, oral, rat, 14 days, 30 mg kg-1 once daily, average unbound plasma concentration, read-out: Avg Cp,u parent) [nM] | CatD potency difference between cell-free enzyme and cellular assays (CatD [3]) [fold] | BACE1 selectivity over CatD in cells (CatD [3]; cellular inhibition of BACE1 cleavage of APP versus inhibition of CatD labelling by PF-7802) [fold]
1 | Cc1cc([C@H]2C[C@H]3[C@@H](CF)SC(N)=N[C@@]3(c3ccc(F)cc3F)CO2)on1 [PF-3195] | 9000 | 150 | unexpectedly low exposures | 460 | 5.4 | 2570 | 58 | 6350 | 232 | 17300 | 1790 | 17 | 540 nM | 7.0 | – | – | –
2 | Cc1cc([C@H]2C[C@H]3[C@@H](C)SC(N)=N[C@@]3(c3ccc(F)cc3F)CO2)on1 [PF-9283] | 12000 | 140 | unexpectedly low exposures | – | – | – | – | – | – | – | – | 86 | 140 nM and < 300 nM | 7.7 | 29 | ~86 | 23
